Data: patent US7928060B2, “Amylin family polypeptide-6 (AFP-6) analogs and methods of making and using them” (Amylin Pharmaceuticals, Inc., priority 2004, dated 2011)
Bridge positions count the residues as written; N and C are the ends. Ends that are not written are not given here. Peptide text beside a SMILES is read from it.

Assays:
calcitonin receptor = target: T1, calcitonin receptor (Rattus norvegicus, UniProt P32214); experiment: calcitonin receptor binding assay (rCalcitonin RBA); settings: Table 6; read-out: CT receptor binding
T1 sequence (P32214 25-516): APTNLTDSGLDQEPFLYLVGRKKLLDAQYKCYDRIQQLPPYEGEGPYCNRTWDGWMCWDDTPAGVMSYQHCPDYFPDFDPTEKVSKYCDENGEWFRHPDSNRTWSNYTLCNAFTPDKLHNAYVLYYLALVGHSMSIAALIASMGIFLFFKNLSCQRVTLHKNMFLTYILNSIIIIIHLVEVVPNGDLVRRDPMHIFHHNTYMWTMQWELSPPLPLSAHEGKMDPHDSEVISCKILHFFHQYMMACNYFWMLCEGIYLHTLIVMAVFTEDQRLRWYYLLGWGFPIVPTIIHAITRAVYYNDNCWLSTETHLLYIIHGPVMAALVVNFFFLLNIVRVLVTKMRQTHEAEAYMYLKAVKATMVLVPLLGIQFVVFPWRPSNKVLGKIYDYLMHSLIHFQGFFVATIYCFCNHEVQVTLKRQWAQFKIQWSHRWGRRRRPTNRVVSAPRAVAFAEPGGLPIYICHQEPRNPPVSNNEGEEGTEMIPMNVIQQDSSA

adrenomedullin receptor = adrenomedullin receptor (Homo sapiens, UniProt O60895+Q16602); experiment: adrenomedullin (ADM) receptor binding assay; settings: Table 6
Sequence of adrenomedullin receptor (Q16602 23-461): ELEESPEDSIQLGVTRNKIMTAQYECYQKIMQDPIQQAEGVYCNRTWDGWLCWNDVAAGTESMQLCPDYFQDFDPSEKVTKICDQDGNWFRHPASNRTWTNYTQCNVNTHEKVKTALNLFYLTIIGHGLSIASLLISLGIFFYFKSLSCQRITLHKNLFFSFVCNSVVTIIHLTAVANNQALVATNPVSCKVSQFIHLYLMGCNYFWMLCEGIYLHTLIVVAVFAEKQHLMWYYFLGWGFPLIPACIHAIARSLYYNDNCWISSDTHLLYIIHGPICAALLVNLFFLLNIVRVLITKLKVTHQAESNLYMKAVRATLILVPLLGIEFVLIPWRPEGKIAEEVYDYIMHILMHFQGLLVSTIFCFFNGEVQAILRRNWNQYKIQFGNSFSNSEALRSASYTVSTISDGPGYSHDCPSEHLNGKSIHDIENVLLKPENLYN
Sequence of adrenomedullin receptor (O60895 43-175): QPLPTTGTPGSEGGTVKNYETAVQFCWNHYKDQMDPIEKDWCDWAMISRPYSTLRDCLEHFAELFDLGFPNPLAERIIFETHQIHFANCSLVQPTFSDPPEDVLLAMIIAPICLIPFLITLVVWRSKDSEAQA

CGRP receptors = target: T2, CGRP receptors (Homo sapiens, UniProt O60894+Q16602); experiment: CGRP radioligand binding assay (125I-hCGRP, SK-N-MC cell membranes); settings: Table 6
T2 construct: membranes prepared from SK-N-MC cells, known to express CGRP receptors; endogenous in cells; host or cells: SK-N-MC cell membranes
T2 sequence (Q16602 23-461): as the sequence (Q16602 23-461) above
T2 sequence (O60894 27-148): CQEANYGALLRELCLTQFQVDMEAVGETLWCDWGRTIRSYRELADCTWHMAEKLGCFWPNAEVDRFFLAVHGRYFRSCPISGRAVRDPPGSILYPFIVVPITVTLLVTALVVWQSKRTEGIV

NIH/Swiss mice = experiment: acute food intake assay in overnight-fasted mice, IP injection; format: in vivo, mouse
Description: The effect of AFP-6 on food intake was investigated using an acute food intake assay. This assay measured food consumption in lean, group-housed, overnight-fasted NIH/Swiss mice. 12 mice were housed 3 to a cage. The sample compound, in this case AFP-6, was injected IP in mice and food intake was measured during the next 2-hours. Decreased, as well as increased, food intake can be measured. Testing various doses of the compound generated ED50's. The assay was performed as follows: 1. Remove food (water ad libitum) at 5:00 pm the evening before the study. 2. Weigh food pellets (3 pellets/cage). 3. Inject animals intraperitoneally with 200 ul of appropriate solution, t=0. 4. Immediately add pre-weighed food to each cage (away from water bottle spout) and allow animals to feed undisturbed. 5. At 30, 60, and 120 minutes, collect and weigh food. 6. Analyze data. Data points represent mean ±sd of n=12.
Twelve mice were injected IP at t=0 for each dose, 0.3, 1, 3, 10, 30, 100, or 300 nmol/kg of AFP-6 (Amylin Pharmaceuticals, Inc.) (n=12/group). Food was introduced immediately after injection and amount consumed measured at t=30, 60, and 120 min.

Molecule	IC50 (calcitonin receptor) [nM]	IC50 (adrenomedullin receptor) [nM]	IC50 (CGRP receptors) [nM]	inhibition of food intake (NIH/Swiss mice; 0.63 mg/kg, mice, not significant) [%]	FI 30 min ED50 (NIH/Swiss mice; food intake, 30 min) [nmol/kg]	FI 60 min ED50 (NIH/Swiss mice; food intake, 60 min) [nmol/kg]
CC(C)C[C@H](NC(=O)[C@H](CCC(N)=O)NC(=O)[C@H](Cc1c[nH]c2ccccc12)NC(=O)[C@H](CC(C)C)NC(=O)[C@H](CCCNC(=N)N)NC(=O)[C@H](Cc1c[nH]cn1)NC(=O)[C@H](CO)NC(=O)[C@H](CC(C)C)NC(=O)[C@H](CC(N)=O)NC(=O)[C@H](CCC(N)=O)NC(=O)[C@@H](NC(=O)[C@H](CCC(N)=O)NC(=O)[C@@H]1CSSC[C@H](NC(=O)[C@@H](N)C(C)C)C(=O)N[C@@H](CC(N)=O)C(=O)N[C@@H]([C@@H](C)O)C(=O)N[C@@H](C)C(=O)N[C@@H]([C@@H](C)O)C(=O)N1)C(C)C)C(=O)N[C@@H](CCCNC(=N)N)C(=O)N[C@@H](CCC(N)=O)C(=O)N[C@@H](CC(=O)O)C(=O)N[C@@H](CO)C(=O)N[C@@H](C)C(=O)N1CCC[C@H]1C(=O)N[C@H](C(=O)N[C@@H](CC(=O)O)C(=O)N1CCC[C@H]1C(=O)N[C@@H](CO)C(=O)N[C@@H](CO)C(=O)N1CCC[C@H]1C(=O)N[C@@H](Cc1c[nH]cn1)C(=O)N[C@@H](CO)C(=O)N[C@@H](Cc1ccc(O)cc1)C(N)=O)C(C)C [compound 30] (H-VCNTATCQVQNLSHRLWQLRQDSAPVDPSSPHSY-NH2; disulfide 2-7 (inferred))	128	≥ 1000	37			
CC(C)C[C@@H]1NC(=O)[C@H](CC(N)=O)NC(=O)CNC(=O)[C@@H](NC(=O)CN)CSSC[C@@H](C(=O)N[C@@H](CCC(N)=O)C(=O)N[C@H](C(=O)N[C@@H](CCC(N)=O)C(=O)N[C@@H](CC(N)=O)C(=O)N[C@@H](CC(C)C)C(=O)N[C@@H](CO)C(=O)N[C@@H](Cc2c[nH]cn2)C(=O)N[C@@H](CCCNC(=N)N)C(=O)N[C@@H](CC(C)C)C(=O)N[C@@H](Cc2c[nH]c3ccccc23)C(=O)N[C@@H](CCC(N)=O)C(=O)N[C@@H](CC(C)C)C(=O)N[C@@H](CCCNC(=N)N)C(=O)N[C@@H](CCC(N)=O)C(=O)N[C@@H](CC(=O)O)C(=O)N[C@@H](CO)C(=O)N[C@@H](C)C(=O)N2CCC[C@H]2C(=O)N[C@H](C(=O)N[C@@H](CCC(=O)O)C(=O)N2CCC[C@H]2C(=O)N[C@@H](CO)C(=O)N[C@@H](CO)C(=O)N2CCC[C@H]2C(=O)N[C@@H](Cc2c[nH]cn2)C(=O)N[C@@H](CO)C(=O)N[C@@H](Cc2ccc(O)cc2)C(N)=O)C(C)C)C(C)C)NC(=O)[C@H]([C@@H](C)O)NC(=O)[C@H](CO)NC1=O [compound 39] (H-GCGNLSTCQVQNLSHRLWQLRQDSAPVEPSSPHSY-NH2; disulfide 2-8 (inferred); N-terminus assumed)	31	≥ 1000	> 1000			
Rat calcitonin: rat calcitonin, reference peptide in the food intake assay (CGNLSTCMLGTYTQDLNKFHTFPQTSIGVGAP; ends and bridges not checked; cysteine pairing not given here; UniProt P01257 85-116, looked up)				16		
r/h Adrenomedullin: Amylin Family polypeptide of Table 3; r/h not resolved per value					18	13
